Converted amounts (≈) assume the structure as drawn. Read-outs that look alike come from different tables or passages of the source.
Key:
Plasmodium falciparum = assay: antimalaria activity on in vitro cultures, [3H]-hypoxanthine incorporation; format: cell-based; conditions: 72 h, inhibition of [3H]-hypoxanthine incorporation, 48 + 24 hours, read-out: IC50(nM) of malaria culture (Plasmodium falciparum)
Procedure: The antimalaria activity of the compounds listed on page 9 was determined on in vitro cultures of the malaria pathogen Plasmodium falciparum. The depressions of a 96-well microtitre plate were charged with in each case 200 μl of an asynchroneous Plasmodium falciparum culture at a parasitaemia of 0,4% and haematokrit of 2%. A serial dilution series of the compounds in triple steps between concentrations of 100 to 0,14 μmol 1^−1 was then prepared. The plates were incubated at 37° C., 3% CO2 and 5% O2 over a period of 48 hours. 30 μl medium supplemented with 27 μCi ml^−1 [^3H]-hypoxanthine were then added to each well. After incubation for 24 hours the parasites were harvested by filtration on a glass fibre filter and the radioactivity which had been incorporated was measured. The inhibition of the growth of parasites was measured as the percentage inhibition of the incorporation of tritium. Inhibition of the growth of the parasites has been determined as percentage inhibition of incorporation of tritium based on a comparison without the substance. The half-maximum inhibitory concentration (IC50) of the substance was determined by extrapolation of the values.

Pseudomonas aeruginosa = assay: antibacterial activity, minimum inhibition concentration in liquid culture; format: cell-based; conditions: read-out: MIC(nM) of bacteria culture (Pseudomonas aeruginosa)
Procedure: A dilution series comprising the concentrations 500, 100, 50, 10 and 0 μmol 1^−1 of the individual compounds in LB medium is introduced into 5 culture microtubes in a volume of 0,5 ml. The tubes were inoculated with 10 μl of an overnight culture of E. coli K12 and shaken overnight at 37° C. The growth of the bacteria was assessed on the basis of the turbidity of the medium. The minimum concentration causing inhibition of bacterial growth was determined (minimum inhibition concentration MIC)
The antibacterial activity of P. aeruginosa was determined in the same manner.

[1] = molecular target: T1, DOXP reductoisomerase of Escherichia coli (UniProt P56139); assay: inhibition of recombinant DOXP reductoisomerase (NADPH oxidation); format: biochemical; conditions: 1 mM DOXP, 0,3 mM NADPH, pH 7,5; read-out: IC50(nM) of DOXP reductoisomerase from Helicobacter pilori
T1 sequence (P56139 1-368): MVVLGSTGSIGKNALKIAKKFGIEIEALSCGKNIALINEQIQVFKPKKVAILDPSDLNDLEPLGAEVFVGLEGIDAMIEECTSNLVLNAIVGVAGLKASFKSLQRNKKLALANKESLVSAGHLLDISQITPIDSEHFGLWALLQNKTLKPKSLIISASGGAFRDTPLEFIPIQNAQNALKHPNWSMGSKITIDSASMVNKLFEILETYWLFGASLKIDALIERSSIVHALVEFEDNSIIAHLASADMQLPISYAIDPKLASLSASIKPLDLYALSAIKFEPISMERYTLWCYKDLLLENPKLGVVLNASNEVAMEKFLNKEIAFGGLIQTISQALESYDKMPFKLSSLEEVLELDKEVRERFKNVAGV

Setaria viridis [2] = assay: herbicidal activity, Erde Nachauflauf; format: in vivo; conditions: 2000 Gramm/Hektar
Procedure: (§1) The determination of herbicidal activity is performed according to standard procedure. Again the compounds listed on page 9 are tested.

Abutilon theophrasti [3] = assay: herbicidal activity, Erde Nachauflauf; format: in vivo; conditions: 2000 Gramm/Hektar
Procedure: as §1

Amaranthus retroflexus [4] = assay: herbicidal activity, Erde Nachauflauf; format: in vivo; conditions: 2000 Gramm/Hektar
Procedure: as §1

Zea mays [5] = assay: herbicidal activity, Erde Nachauflauf; format: in vivo; conditions: 2000 Gramm/Hektar
Procedure: as §1

Xanthium strumarium [6] = assay: herbicidal activity, Erde Nachauflauf; format: in vivo; conditions: 2000 Gramm/Hektar
Procedure: as §1

Beta vulgaris [7] = assay: herbicidal activity, Erde Nachauflauf; format: in vivo; conditions: 2000 Gramm/Hektar
Procedure: as §1

Cyperus esculentus [8] = assay: herbicidal activity, Erde Nachauflauf; format: in vivo; conditions: 2000 Gramm/Hektar
Procedure: as §1

Sinapis arvensis [9] = assay: herbicidal activity, Erde Nachauflauf; format: in vivo; conditions: Mutarda arvensis; 2000 Gramm/Hektar
Procedure: as §1

Avena fatua [10] = assay: herbicidal activity, Erde Nachauflauf; format: in vivo; conditions: 2000 Gramm/Hektar
Procedure: as §1

Alopecurus myosuroides [11] = assay: herbicidal activity, Erde Nachauflauf; format: in vivo; conditions: 2000 Gramm/Hektar
Procedure: as §1

Galium aperine [12] = assay: herbicidal activity, Erde Nachauflauf; format: in vivo; conditions: 2000 Gramm/Hektar
Procedure: as §1

Lepidium = assay: herbicidal activity, Hydro Vorauflauf; format: in vivo; conditions: 4000 Gramm/Hektar
Procedure: as §1

Echinochloa = assay: herbicidal activity, Hydro Vorauflauf; format: in vivo; conditions: 4000 Gramm/Hektar
Procedure: as §1

Reis = assay: herbicidal activity, Hydro Vorauflauf; format: in vivo; conditions: 4000 Gramm/Hektar
Procedure: as §1

Solanum = assay: herbicidal activity, Hydro Vorauflauf; format: in vivo; conditions: 4000 Gramm/Hektar
Procedure: as §1

Setaria viridis [13] = assay: herbicidal activity, Erde Vorauflauf; format: in vivo; conditions: 2000 Gramm/Hektar
Procedure: as §1

Abutilon theophrasti [14] = assay: herbicidal activity, Erde Vorauflauf; format: in vivo; conditions: 2000 Gramm/Hektar
Procedure: as §1

Amaranthus retroflexus [15] = assay: herbicidal activity, Erde Vorauflauf; format: in vivo; conditions: 2000 Gramm/Hektar
Procedure: as §1

Zea mays [16] = assay: herbicidal activity, Erde Vorauflauf; format: in vivo; conditions: 2000 Gramm/Hektar
Procedure: as §1

Xanthium strumarium [17] = assay: herbicidal activity, Erde Vorauflauf; format: in vivo; conditions: 2000 Gramm/Hektar
Procedure: as §1

Beta vulgaris [18] = assay: herbicidal activity, Erde Vorauflauf; format: in vivo; conditions: 2000 Gramm/Hektar
Procedure: as §1

Cyperus esculentus [19] = assay: herbicidal activity, Erde Vorauflauf; format: in vivo; conditions: 2000 Gramm/Hektar
Procedure: as §1

Sinapis arvensis [20] = assay: herbicidal activity, Erde Vorauflauf; format: in vivo; conditions: Mutarda arvensis; 2000 Gramm/Hektar
Procedure: as §1

Avena fatua [21] = assay: herbicidal activity, Erde Vorauflauf; format: in vivo; conditions: 2000 Gramm/Hektar
Procedure: as §1

Alopecurus myosuroides [22] = assay: herbicidal activity, Erde Vorauflauf; format: in vivo; conditions: 2000 Gramm/Hektar
Procedure: as §1

Galium aperine [23] = assay: herbicidal activity, Erde Vorauflauf; format: in vivo; conditions: 2000 Gramm/Hektar
Procedure: as §1

| Compound | IC50 (Plasmodium falciparum) [nM] | IC50 [1] [nM] | pest or weed control at 2000 g/ha (Setaria viridis [2]) [%] | pest or weed control at 2000 g/ha (Abutilon theophrasti [3]) [%] | pest or weed control at 2000 g/ha (Amaranthus retroflexus [4]) [%] | plant injury at 2000 g/ha (Zea mays [5]) [%] | pest or weed control at 2000 g/ha (Xanthium strumarium [6]) [%] | plant injury at 2000 g/ha (Beta vulgaris [7]) [%] | pest or weed control at 2000 g/ha (Cyperus esculentus [8]) [%] | pest or weed control at 2000 g/ha (Sinapis arvensis [9]) [%] | pest or weed control at 2000 g/ha (Avena fatua [10]) [%] | pest or weed control at 2000 g/ha (Alopecurus myosuroides [11]) [%] | pest or weed control at 2000 g/ha (Galium aperine [12]) [%] | pest or weed control at 4000 g/ha (Lepidium) [%] | pest or weed control at 4000 g/ha (Echinochloa) [%] | pest or weed control at 4000 g/ha (Reis) [%] | pest or weed control at 4000 g/ha (Solanum) [%] | pest or weed control at 2000 g/ha (Setaria viridis [13]) [%] | pest or weed control at 2000 g/ha (Abutilon theophrasti [14]) [%] | pest or weed control at 2000 g/ha (Amaranthus retroflexus [15]) [%] | also measured |
| --- | --- | --- | --- | --- | --- | --- | --- | --- | --- | --- | --- | --- | --- | --- | --- | --- | --- | --- | --- | --- | --- |
| CC1CON(COCP(C)(=O)O)C1=O (centres unmarked) [Compound 3] | 1700 | 125 | 70 | 60 | 60 | 70 | 60 | 90 | 0 | 70 | 50 | 60 | 40 | 30 | 40 | 40 | 0 | 0 | 0 | 0 | MIC (Pseudomonas aeruginosa): 2200 nM (≈ 0.491 µg/mL); plant injury at 2000 g/ha (Zea mays [16]): 0%; pest or weed control at 2000 g/ha (Xanthium strumarium [17]): 0%; plant injury at 2000 g/ha (Beta vulgaris [18]): 30%; pest or weed control at 2000 g/ha (Cyperus esculentus [19]): 0%; pest or weed control at 2000 g/ha (Sinapis arvensis [20]): 30%; pest or weed control at 2000 g/ha (Avena fatua [21]): 0%; pest or weed control at 2000 g/ha (Alopecurus myosuroides [22]): 60%; pest or weed control at 2000 g/ha (Galium aperine [23]): 0% |
| CP(=O)(O)CCCN1OCCCC1=O [Compound 4] | 9200 | 78 | 90 | 50 | 40 | 70 | 90 | 50 | 0 | 60 | 40 | 70 | 70 | 30 | 70 | 30 | 30 | 0 | 0 | 0 | MIC (Pseudomonas aeruginosa): 7000 nM (≈ 1.55 µg/mL); plant injury at 2000 g/ha (Zea mays [16]): 30%; pest or weed control at 2000 g/ha (Xanthium strumarium [17]): 0%; plant injury at 2000 g/ha (Beta vulgaris [18]): 60%; pest or weed control at 2000 g/ha (Cyperus esculentus [19]): 0%; pest or weed control at 2000 g/ha (Sinapis arvensis [20]): 70%; pest or weed control at 2000 g/ha (Avena fatua [21]): 60%; pest or weed control at 2000 g/ha (Alopecurus myosuroides [22]): 0%; pest or weed control at 2000 g/ha (Galium aperine [23]): 0% |
| CC1CON(CCCP(=O)(O)O)C1=O (centres unmarked) [Compound 5] | 1200 | 100 | 95 | 40 | 30 | 80 | 60 | 40 | 0 | 90 | 40 | 80 | 70 | 40 | 60 | 40 | 0 | 0 | 0 | 0 | MIC (Pseudomonas aeruginosa): 2200 nM (≈ 0.491 µg/mL); plant injury at 2000 g/ha (Zea mays [16]): 0%; pest or weed control at 2000 g/ha (Xanthium strumarium [17]): 0%; plant injury at 2000 g/ha (Beta vulgaris [18]): 30%; pest or weed control at 2000 g/ha (Cyperus esculentus [19]): 0%; pest or weed control at 2000 g/ha (Sinapis arvensis [20]): 50%; pest or weed control at 2000 g/ha (Avena fatua [21]): 0%; pest or weed control at 2000 g/ha (Alopecurus myosuroides [22]): 60%; pest or weed control at 2000 g/ha (Galium aperine [23]): 0% |
| CN(C)CCCN1OCCCC1=O [Compound 6] | 1600 | 130 | 70 | 60 | 70 | 70 | 60 | 40 | 0 | 60 | 60 | 40 | 80 | 30 | 50 | 40 | 0 | 0 | 0 | 0 | MIC (Pseudomonas aeruginosa; LB medium, overnight at 37° C., turbidity): 2500 nM (≈ 0.466 µg/mL); plant injury at 2000 g/ha (Zea mays [16]): 0%; pest or weed control at 2000 g/ha (Xanthium strumarium [17]): 0%; plant injury at 2000 g/ha (Beta vulgaris [18]): 60%; pest or weed control at 2000 g/ha (Cyperus esculentus [19]): 0%; pest or weed control at 2000 g/ha (Sinapis arvensis [20]): 30%; pest or weed control at 2000 g/ha (Avena fatua [21]): 0%; pest or weed control at 2000 g/ha (Alopecurus myosuroides [22]): 70%; pest or weed control at 2000 g/ha (Galium aperine [23]): 0% |
